Key:
Experiment in all cases: MIC by broth microdilution (NCCLS M7-A5)
[1] = system: Acinetobacter baumannii J51; type: cell-based
Protocol: Antimicrobial activity of the compounds and of their combinations was determined against a selection of organisms according to the standard procedures described by the National Committee for Clinical Laboratory Standards (National Committee for Clinical Laboratory. Standards (2000). Methods for Dilution Antimicrobial Susceptibility Tests for Bacteria That Grow Aerobically-Fifth Edition: Approved Standard M7-A5. NCCLS, Wayne, Pa., USA).
In all cases the final concentration of DMSO incubated with the bacteria is less than or equal to 1%. […] Plates were incubated overnight at an appropriate temperature (30° C. or 37° C.) and optical densities assessed by eye. The MIC value is defined as the lowest compound concentration completely inhibiting visible growth of the test organism. When combinations between compounds of formula I with compounds of formula II and are evaluated the compounds of formula I are tested in dilution series as described above while the compounds of formula II and III-XIII were present in all wells at a constant concentration of 4 μg/mL each.

[2] = system: Enterobacter aerogenes Zayakosky; conditions: Enterobacter aerogenes Zayakosky 5
Acinetobacter sp. J2 = conditions: Acinetobacter baumannii J2
[3] = system: Pseudomonas aeruginosa MK1184
[4] = system: Pseudomonas aeruginosa 1973E
Enterobacter cloacae P99 = system: Enterobacter cloacae P99
[5] = system: Klebsiella pneumoniae CF104
Serratia marcescens S6 = system: Serratia marcescens S6
[6] = system: Stenotrophomonas malthophilia 1AC736; conditions: Stenotrophomonas maltophilia 1AC736

- MIC of antibiotic ([1]; + 324 4 mg/L): 2 µg/mL
- MIC of antibiotic ([1]; + BRL427158 4 mg/L): 32 µg/mL
- MIC of antibiotic ([1]; + clavulanic acid 4 mg/L): 1 µg/mL
- MIC of antibiotic ([1]; antibiotic alone): 4 µg/mL
- MIC of antibiotic ([2]; + 324 4 mg/L): 4 µg/mL
- MIC of antibiotic ([2]; + BRL427158 4 mg/L): 0.5 µg/mL
- MIC of antibiotic ([2]; + clavulanic acid 4 mg/L): 8 µg/mL
- MIC of antibiotic ([2]; antibiotic alone): 16 µg/mL
- MIC of antibiotic (Acinetobacter sp. J2; + 324 4 mg/L): 4 µg/mL
- MIC of antibiotic (Acinetobacter sp. J2; + 324 + sulbactam, 4 mg/L each): 2 µg/mL
- MIC of antibiotic (Acinetobacter sp. J2; + BRL427158 4 mg/L): 0.5 µg/mL
- MIC of antibiotic (Acinetobacter sp. J2; + clavulanate 4 mg/L): >32 µg/mL
- MIC of antibiotic (Acinetobacter sp. J2; antibiotic alone): 4 µg/mL
- MIC of antibiotic ([3]; + 324 4 mg/L): 4 µg/mL
- MIC of antibiotic ([3]; + 324 + sulbactam, 4 mg/L each): 2 µg/mL
- MIC of antibiotic ([3]; + BRL427158 4 mg/L): 2 µg/mL
- MIC of antibiotic ([3]; + clavulanate 4 mg/L): 4 µg/mL
- MIC of antibiotic ([3]; antibiotic alone): 2 µg/mL
- MIC of antibiotic ([4]; + 324 4 mg/L): 4 µg/mL
- MIC of antibiotic ([4]; + 324 + sulbactam, 4 mg/L each): 2 µg/mL
- MIC of antibiotic ([4]; + BRL427158 4 mg/L): 2 µg/mL
- MIC of antibiotic ([4]; + clavulanate 4 mg/L): 2 µg/mL
- MIC of antibiotic ([4]; antibiotic alone): 16 µg/mL
- MIC of antibiotic (Enterobacter cloacae P99; + 324 4 mg/L): 2 µg/mL
- MIC of antibiotic (Enterobacter cloacae P99; + 324 + sulbactam, 4 mg/L each): 2 µg/mL
- MIC of antibiotic (Enterobacter cloacae P99; + BRL427158 4 mg/L): 2 µg/mL
- MIC of antibiotic (Enterobacter cloacae P99; + clavulanate 4 mg/L): 8 µg/mL
- MIC of antibiotic (Enterobacter cloacae P99; antibiotic alone): 16 µg/mL
- MIC of antibiotic ([5]; + 324 4 mg/L): 16 µg/mL
- MIC of antibiotic ([5]; + 324 + sulbactam, 4 mg/L each): 1 µg/mL
- MIC of antibiotic ([5]; + BRL427158 4 mg/L): 0.125 µg/mL
- MIC of antibiotic ([5]; + clavulanate 4 mg/L): 0.5 µg/mL
- MIC of antibiotic ([5]; antibiotic alone): 32 µg/mL
- MIC of antibiotic (Serratia marcescens S6; + 324 4 mg/L): ≦0.06 mg/L
- MIC of antibiotic (Serratia marcescens S6; + 324 + sulbactam, 4 mg/L each): <0.06 µg/mL
- MIC of antibiotic (Serratia marcescens S6; + BRL427158 4 mg/L): ≦0.06 mg/L
- MIC of antibiotic (Serratia marcescens S6; + clavulanate 4 mg/L): ≦0.06 mg/L
- MIC of antibiotic (Serratia marcescens S6; antibiotic alone): <0.06 µg/mL
- MIC of antibiotic ([6]; + 324 4 mg/L): 0.25 µg/mL
- MIC of antibiotic ([6]; + 324 + sulbactam, 4 mg/L each): 0.25 µg/mL
- MIC of antibiotic ([6]; + BRL427158 4 mg/L): 0.125 µg/mL
- MIC of antibiotic ([6]; + clavulanate 4 mg/L): ≦0.06 mg/L
- MIC of antibiotic ([6]; antibiotic alone): <0.06 µg/mL
Structure (SMILES): CC1(C)[C@H](NC(=O)/C(=N\OCc2cc(=O)c(O)cn2O)c2csc(N)n2)C(=O)N1OS(=O)(=O)O [Compound 26, (3S)-3-{(2Z)-2-(2-amino(1,3-thiazol-4-yl))-3-[(1,5-dihydroxy-4-oxo(2-hydropyridyl))methoxy]-3-azaprop-2-enoylamino}-4,4-dimethyl-2-oxoazetidinyl hydroxysulfonate]
